Measured values taken from PubChem BioAssay (NCI).
Where “and” joins values, the source holds several entries; their conditions need not be identical. Identical values can stand only once.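 Growth conditions: 96-well plates. Treatment: test compound, 48 hours, 5 concentrations. Analysis: linear interpolation between bracketing concentrations; unreached endpoints set to highest concentration. GI50: concentration for 50% inhibition of growth. The concentration for full growth arrest is given as TGI.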

Columns and labels:
Assay in all cases: NCI tumour cell line growth inhibition, 48 h
A549 NSCLC = system: A549 NSCLC
ACHN renal = system: ACHN renal
HOP-92 NSCLC = system: HOP-92 NSCLC
KM12 colon = system: KM12 colon
MDA-MB-231 breast = system: MDA-MB-231 breast
NCI-H226 lung = system: NCI-H226 lung
NCI-H23 lung = system: NCI-H23 lung
OVCAR-4 ovarian = system: OVCAR-4 ovarian
OVCAR-5 ovarian = system: OVCAR-5 ovarian
U251 CNS = system: U251 CNS

Compound | GI50 (A549 NSCLC) [µM] | TGI (A549 NSCLC) | GI50 (ACHN renal) [µM] | TGI (ACHN renal) | GI50 (HOP-92 NSCLC) | TGI (HOP-92 NSCLC) | GI50 (KM12 colon) | TGI (KM12 colon) [µM] | GI50 (MDA-MB-231 breast) | TGI (MDA-MB-231 breast) | GI50 (NCI-H226 lung) | TGI (NCI-H226 lung) | GI50 (NCI-H23 lung) [µM] | TGI (NCI-H23 lung) | GI50 (OVCAR-4 ovarian) [µM] | TGI (OVCAR-4 ovarian) | GI50 (OVCAR-5 ovarian) | TGI (OVCAR-5 ovarian) | GI50 (U251 CNS) [µM] | TGI (U251 CNS) [µM]
CC1CCC(C#N)(NOC2=NCCN2)CC1 (centres undefined) | 39.4 | > 100 µM | 15.2 | 30.1 µM | 35.4 µM | 91.3 µM | 42.6 µM | > 100 | 54.9 µM | > 100 µM | 15.2 µM | 34.1 µM | 34 | > 100 µM | 47.2 | > 100 µM | > 100 µM | > 100 µM | 15.8 | 32.4
O=C(Nc1ccc([N+](=O)[O-])cc1)c1cc2ccccc2cc1O | 0.454 | > 21.5 µM | 0.38 | 16.8 µM | 0.172 µM | 0.557 µM | 0.698 µM | 2.68 | 0.413 µM | 1.89 µM | 0.503 µM | 5.37 µM | 0.294 | 1.42 µM | 0.322 | > 100 µM | 1.73 µM | 48.2 µM | 0.36 | 13.1
c1cc(C2N3CCCN2CC3)ccn1 (centres undefined) |  | > 100 µM |  | > 100 µM |  |  |  | > 100 |  | > 100 µM |  | > 100 µM |  | > 100 µM |  | > 100 µM |  | > 100 µM |  | > 100
COc1cccc2cc(N(C)c3nc(C)nc4ccsc34)ccc12 | < 0.01 | 16 µM | < 0.01 | 13.3 µM | < 0.01 µM | 2.19 µM | < 0.01 µM | 11.4 | < 0.01 µM | 15 µM | < 0.015 µM | 19.8 µM | < 0.01 | 18 µM | < 0.0266 | 19.8 µM | < 0.01 µM | 17.4 µM | < 0.01 | 15.1
Cc1sc2c(c1C)C(c1ccc(Cl)cc1)=N[C@@H](CC(=O)Nc1ccc(O)cc1)c1nnc(C)n1-2 | 2.6 | 26.8 µM | 1.28 | 29.9 µM | 0.0423 µM | 13.1 µM | 4.52 µM | 29.6 | 0.18 µM | 21.7 µM | 4.48 µM | 26 µM | 7.98 | 39.2 µM | 0.585 | > 67 µM | 11.6 µM | 30.3 µM | 3.78 | 21.7
CCCCCCCCCCC(CN(CC)CC)C(O)c1ccccc1 (centres undefined) | 2.49 | 5.41 µM | 1.61 | 3.07 µM | 1.27 µM | 2.98 µM | 1.83 µM | 3.39 | 1.72 µM | 3.43 µM | 2.03 µM | 4.66 µM | 1.93 | 3.74 µM | 1.63 | 3.45 µM | 1.78 µM | 3.49 µM | 1.86 | 3.56
COc1ccc(NCc2c(O)ccc3ccccc23)cc1 |  | > 100 µM |  | 31.2 µM |  | 29.6 µM |  | > 100 |  | > 100 µM |  |  |  | > 100 µM |  | > 100 µM |  | 49.3 µM |  | > 100
COc1ccc(-c2cc3nccn3c(Nc3ncccc3C(N)=O)n2)cc1OC | 3 | > 100 µM | 0.445 | > 100 µM |  |  | 2.62 µM | 27.3 | > 100 µM | > 100 µM | > 100 µM | > 100 µM | > 39.2 | > 100 µM | > 100 | > 100 µM | > 100 µM | > 100 µM | > 100 | > 100
COc1ccc(Cn2cc3c(c2-c2ccccc2)CCc2cncnc2-3)cc1 | 3.55 | 14.1 µM | 11.3 | 35.8 µM | 10.8 µM | 28.5 µM | 3.57 µM | 13.5 | 5.12 µM | 18.3 µM | 11.5 µM | 26.7 µM | 10.6 | 39.3 µM | 10.2 | 33.7 µM | 18.4 µM | 37.7 µM | 5.47 | 18
c1cc(-c2cnn3nc(N4CCOCC4)ccc23)nc(NC2CC2)n1 | 7.87 | > 25 µM | 5.7 | > 25 µM | 5.64 µM | > 25 µM | 8.13 µM | > 25 | 10.2 µM | > 25 µM | 5.59 µM | > 25 µM | 7.19 | > 25 µM | 14.9 | > 25 µM | 6.64 µM | > 22.4 µM | 6.97 | > 25
C=C(C)C(=O)N1c2ccc(OC)cc2CC1C(=O)OCC (centres undefined) |  | > 100 µM |  | > 100 µM |  |  |  | > 100 |  | > 100 µM |  | > 100 µM |  | > 100 µM |  | > 100 µM |  | > 100 µM |  | > 100
C=C(CN(CCN1CCOCC1)CC(=C)c1ccc(C(=O)Nc2ccccc2N)cc1)c1ccc(C(=O)Nc2ccccc2N)cc1 | 9.38 | 24.9 µM | 6.04 | 13.3 µM | 8.35 µM | 33.8 µM | 9.12 µM | 19.5 | 3.05 µM | 11.2 µM |  |  | 2.49 | 9.11 µM | 10.5 | > 50 µM | 7.62 µM | 15.2 µM | 5.78 | 12.4
NCCCn1c2c(c3ccc([N+](=O)[O-])cc3c1=O)C(=O)c1cc(Cl)ccc1-2 | < 0.01 | 0.116 µM | < 0.01 | 0.124 µM | 0.0542 µM | 0.544 µM | < 0.0283 µM | 0.174 | 0.218 µM | 0.64 µM | < 0.01 µM | 0.141 µM | < 0.01 | 0.055 µM |  |  | 0.0265 µM | 0.193 µM | < 0.01 | 0.123
CO[C@@]12[C@H](COC(N)=O)C3=C(C(=O)C(C)=C(N)C3=O)N1C[C@@H]1N[C@@H]12 |  | 8.52 µM and 25 µM and 2.78 µM |  | 4.88 µM and 1.76 µM | 1.81 µM and 1.75 µM | 12.4 µM and 5.53 µM and 7.2 µM | 1.57 µM and 3.5 µM |  | 17.5 µM and 9.42 µM | 16.8 µM and 25 µM and 56.3 µM | 1.35 µM and 1.45 µM | 3.95 µM and 7.99 µM and 8.8 µM | 0.77 | 1.43 µM and 3.86 µM and 4.56 µM | 4.65 | 10.5 µM and 10.1 µM and 42.8 µM | 2.69 µM and 1.65 µM | 9.29 µM and 10.5 µM and 14 µM |  | 
CC1(C)CC(O)CCCCCCOc2c(CN)cccc2NC(=O)c2nc(cnc2N)-c2ccc(cc2)S1(=O)=O (centres undefined) |  |  | 0.0214 | 2.04 µM | 2.72 µM | 5.82 µM | 0.843 µM | 2.59 | 1.85 µM | 4.48 µM | 1.28 µM | 6.93 µM |  |  | 1.3 | 3.43 µM | 2.81 µM | 6.34 µM | 0.382 | 1.86
CCC(C)c1cnc(CC(C)C)c(=O)[nH]1 (centres undefined) |  | > 100 µM |  | > 100 µM |  | > 100 µM |  | > 100 |  | > 100 µM |  |  |  | > 100 µM |  | > 100 µM |  | > 100 µM |  | > 100
C=C(C)C1CCC2(CO)C(O)CC3(C)C(CCC4C5(C)CCC(O)C(C)(C)C5CCC43C)C12 (centres undefined) |  | 32.6 µM |  | 15.4 µM |  | 25.2 µM |  | > 100 |  | 57.2 µM |  | > 100 µM |  |  |  |  |  | > 100 µM |  | 9.96
Clc1ccc2c(NCCN3CCN(c4ccnc(N5CCCC5)n4)CC3)ccnc2c1 | 4.23 | 16.8 µM | 2.68 | 8.01 µM |  |  | 4.02 µM | 17.4 | 2.06 µM | 5.89 µM | 21.8 µM | 41 µM | 6.88 | 22.7 µM | 3.87 | 28.2 µM | 5.1 µM | 21.4 µM | 3.09 | 10.1
C/C=C/COc1cc(NC(=S)c2ccoc2C)ccc1OC |  | > 100 µM |  |  |  | > 100 µM |  | > 100 |  | > 100 µM |  | > 100 µM |  | > 100 µM |  | > 100 µM |  | > 100 µM |  | > 100
COc1ccc(Cn2c3c(c4c(O)cccc42)C(=O)c2ccccc2-3)cc1 | 8.52 | 32 µM | 5.14 | 16.6 µM | 0.233 µM | 4.23 µM | 7.65 µM | 22 | 12.8 µM | 25.4 µM | 13.4 µM | 32.8 µM | 9.24 | 22 µM |  |  | 10 µM | 21.6 µM | 14.1 | 27.1
C=CC1=C(C)C(Cc2[nH]c(/C=c3\[nH]/c(=C/C4=NC(=O)C(C)/C4=C\C)c(C)c3CCC(=O)O)c(CCC(=O)OC)c2C)NC1=O (centres undefined) | 40.2 | > 100 µM | 26.3 | 77.2 µM | 19.6 µM | 51.6 µM | 21 µM | 40.1 | 25.4 µM | 58.9 µM |  |  | 28.3 | 53.6 µM |  |  | 37.6 µM | > 100 µM | 22.5 | 52.9
CCCCCC/C=C\CCCCCCCCCc1c(O)c(OC)cc(O)c1CN(C)C |  | 17.1 µM |  | 22.5 µM |  |  |  | 11.7 |  | 31.6 µM |  | 36.7 µM |  | 23.1 µM |  | 3.38 µM |  | 29.6 µM |  | 13.4
